In EP0308782A2, “Antimycotic preparations” (BAYER AG, priority 1987, dated 1989):
Converted amounts (≈) assume the structure as drawn.

How the values were obtained:
[1] = tested on: Candida albicans; assay: Antimycotic in-vitro activity, serial dilution test (MIC); assay type: cell-based; settings: meat extract-glucose broth, 28 °C to 37 °C, 24 to 96 h incubation, inoculum 5 x 10³ to 10⁴ germs/ml; for MIC: Candida albicans, read-out: MHK-Werte Candida albicans
Experimental: (§1) Die in-vitro-Prüfungen wurden im Reihenverdünnungstest mit Keiminokula von durchschnittlich 5 x 10³ bis 10⁴ Keimen/ml Substrat durchgeführt. Als Nährmedium dienten • a) für Dermatophyten und Schimmelpilze: Sabouraud's milieu d'epreuve • b) für Hefen: Fleischextrakt-Traubenzucker-Bouillon.
(§2) Die Bebrütungstemperatur betrug 28 °C bis 37 °C, die Bebrütungsdauer lag bei 24 bis 96 Stunden bei Hefen und 96 Stunden bei Dermatophyten und Schimmelpilzen.

[2] = tested on: Microsporum canis; assay: as above; assay type: cell-based; settings: Sabouraud's milieu d'epreuve, 28 °C to 37 °C, 96 h incubation, inoculum 5 x 10³ to 10⁴ germs/ml; for MIC: Microsporum canis, 96 h, read-out: MHK-Werte Microsporum canis
Experimental: as §1, §2

[3] = tested on: Torulopsis glabrata; assay: as above; assay type: cell-based; settings: meat extract-glucose broth, 28 °C to 37 °C, 24 to 96 h incubation, inoculum 5 x 10³ to 10⁴ germs/ml; for MIC: Nakaseomyces glabratus, read-out: MHK-Werte Torulopsis glabrata
Experimental: as §1, §2

[4] = tested on: Trichophyton mentagr.; assay: as above; assay type: cell-based; settings: Sabouraud's milieu d'epreuve, 28 °C to 37 °C, 96 h incubation, inoculum 5 x 10³ to 10⁴ germs/ml; for MIC: Trichophyton, read-out: MHK-Werte Trichophyton mentagr.
Experimental: as §1, §2

[5] = tested on: Aspergillus fumigatus; assay: as above; assay type: cell-based; settings: Sabouraud's milieu d'epreuve, 28 °C to 37 °C, 96 h incubation, inoculum 5 x 10³ to 10⁴ germs/ml; for MIC: Aspergillus fumigatus, read-out: MHK-Werte Aspergillus fumigatus
Experimental: as §1, §2

[6] = tested on: Dermatophyten, Schimmelpilze, Hefen; assay: Antimycotic in-vitro activity, serial dilution test, overall spectrum; assay type: cell-based; settings: statement in words on the in-vitro serial dilution test
Experimental: as §1, §2

[7] = tested on: Candida-Zellen; assay: Antimycotic in-vivo activity (oral) in mouse candidosis; design: species or system Mäuse vom Typ SPF-CF₁; settings: for Antimykotische in-vivo-Wirksamkeit (oral) bei Mäusecandidose: mice infected i.v. with 1 - 2 x 10⁶ Candida cells, 10 - 100 mg/kg oral 1 h before and 7 h after infection, survivors on day 6 p.i.; for antimykotische Wirkung: statement in words, mouse candidosis, oral 10 - 100 mg/kg
Experimental: Mäuse vom Typ SPF-CF₁ wurden intravenös mit 1 - 2 x 10⁶ logarithmisch wachsenden Candida-Zellen, die in physiologischer Kochsalzlösung suspendiert werden, infiziert. Eine Stunde vor und sieben Stunden nach der Infektion werden die Tiere mit jeweils 10 - 100 mg/kg Körpergewicht der Präparate oral behandelt.
Unbehandelte Tiere starben 3 bis 6 Tage post infektionem. Die Überlebensrate am 6.Tag post infektionem betrug bei unbehandelten Kontrolltieren etwa 5 %.

Row | MIC [1] [µg/mL] | MIC [2] [µg/mL] | MIC [3] [µg/mL] | MIC [4] [µg/mL] | MIC [5] [µg/mL] | SMILES | antimykotisches Wirkungsspektrum [6] | Antimykotische in-vivo-Wirksamkeit (oral) bei Mäusecandidose [7] | antimykotische Wirkung [7] | MHK-Werte Candida albicans [1] [µg/ml Nährmedium] | MHK-Werte Microsporum canis [2] [µg/ml Nährmedium] | MHK-Werte Torulopsis glabrata [3] [µg/ml Nährmedium] | MHK-Werte Trichophyton mentagr. [4] [µg/ml Nährmedium] | MHK-Werte Aspergillus fumigatus [5] [µg/ml Nährmedium]
1 | 8 (≈ 21.2 µM) | 2 (≈ 5.29 µM) | 32 (≈ 84.7 µM) | < 1 | 2 (≈ 5.29 µM) | CC(C)(n1cccn1)C(O)(CCc1ccc(Cl)cc1F)Cn1cncn1 (centres unmarked) [Beispiel 26] | – | – | – | – | – | – | – | –
2 | 32 (≈ 81.9 µM) | – | > 64 | 4 (≈ 10.2 µM) | > 64 | CC(C)(Cn1cncn1)C(O)(CCc1ccc2ccccc2c1)Cn1cncn1 (centres unmarked) [Beispiel 2, 4,4-Dimethyl-1-(2-naphthyl)-5-(1,2,4-triazol-1-yl)-3-(1,2,4-triazol-1-yl-methyl)-3-pentanol] | gutes antimykotisches Wirkungsspektrum | – | – | – | – | – | – | –
3 | 8 (≈ 20.3 µM) | – | 2 (≈ 5.07 µM) | 2 (≈ 5.07 µM) | 8 (≈ 20.3 µM) | CC(C)(n1cccn1)C(O)(CCc1ccc(Cl)cc1Cl)Cn1cncn1 (centres unmarked) [Beispiel 23] | – | – | – | – | – | – | – | –
4 | 16 (≈ 42.5 µM) | – | > 64 | 4 (≈ 10.6 µM) | > 64 | Cc1cc(Cl)ccc1OCC(O)(Cn1cncn1)C(C)(C)n1cncn1 (centres unmarked) [Beispiel 12] | gutes antimykotisches Wirkungsspektrum | – | – | – | – | – | – | –
5 | 2 (≈ 5.51 µM) | – | > 64 | 8 (≈ 22 µM) | > 64 | CC(C)(n1cncn1)C(O)(COc1ccc(Cl)cc1)Cn1cncn1 (centres unmarked) [Beispiel 10] | gutes antimykotisches Wirkungsspektrum | +++++ (sehr gute Wirkung = 90 % Überlebende am 6.Tag.p.i.) | gute antimykotische Wirkung | – | – | – | – | –
6 | – | – | – | – | – | CC(C)(n1cccn1)C(O)(CCc1ccc(Cl)cc1)Cn1cncn1 (centres unmarked) [Beispiel 18] | – | – | – | 8 | 4 | 2 | <1 | 2
7 | 8 (≈ 20.6 µM) | < 1 | 16 (≈ 41.2 µM) | < 1 | 2 (≈ 5.16 µM) | Cc1cc(C)n(C(C)(C)C(O)(CCc2ccc(Cl)cc2)Cn2cncn2)n1 (centres unmarked) [Beispiel 21] | – | – | – | – | – | – | – | –
8 | < 1 | – | 32 (≈ 84.5 µM) | 2 (≈ 5.28 µM) | 64 (≈ 169 µM) | CC(C)(n1cncn1)C(O)(CSc1ccc(Cl)cc1)Cn1cncn1 (centres unmarked) [Beispiel 9] | gutes antimykotisches Wirkungsspektrum | – | – | – | – | – | – | –
9 | 16 (≈ 46.6 µM) | – | 8 (≈ 23.3 µM) | 2 (≈ 5.82 µM) | 16 (≈ 46.6 µM) | CC(C)(n1cccn1)C(O)(CCc1ccccc1F)Cn1cncn1 (centres unmarked) [Beispiel 19] | – | – | – | – | – | – | – | –
10 | < 1 | 4 (≈ 11.2 µM) | 16 (≈ 44.7 µM) | < 1 | 4 (≈ 11.2 µM) | CC(C)(n1cccn1)C(O)(/C=C/c1ccc(Cl)cc1)Cn1cncn1 (centres unmarked) [Beispiel 7] | gutes antimykotisches Wirkungsspektrum | – | – | – | – | – | – | –
11 | < 1 | 4 (≈ 11.6 µM) | 4 (≈ 11.6 µM) | < 1 | 8 (≈ 23.3 µM) | CC(C)(n1cccn1)C(O)(CCc1ccc(F)cc1)Cn1cncn1 (centres unmarked) [Beispiel 24] | – | – | – | – | – | – | – | –
12 | 32 (≈ 88.4 µM) | 8 (≈ 22.1 µM) | 16 (≈ 44.2 µM) | < 1 | 16 (≈ 44.2 µM) | CC(C)(n1cccn1)C(O)(COc1ccc(Cl)cc1)Cn1cncn1 (centres unmarked) [Beispiel 28] | – | – | – | – | – | – | – | –
13 | 2 (≈ 5.53 µM) | – | 8 (≈ 22.1 µM) | 2 (≈ 5.53 µM) | 16 (≈ 44.3 µM) | CC(C)(n1cccn1)C(O)(CCc1ccc(F)cc1F)Cn1cncn1 (centres unmarked) [Beispiel 22] | – | – | – | – | – | – | – | –
14 | 4 (≈ 9.77 µM) | 2 (≈ 4.89 µM) | 4 (≈ 9.77 µM) | < 1 | < 1 | CC(C)(n1cccn1)C(O)(CCc1ccc(OC(F)(F)F)cc1)Cn1cncn1 (centres unmarked) [Beispiel 20] | – | – | – | – | – | – | – | –
15 | – | 2 (≈ 5.56 µM) | – | < 1 | 2 (≈ 5.56 µM) | CC(C)(n1cccn1)C(O)(CCc1ccc(Cl)cc1)Cn1cncn1 (centres unmarked) [Beispiel 17] | – | – | – | 16 | – | 32 | – | –
16 | – | – | – | – | – | CC(C)(n1cncn1)C(O)(C=Cc1ccc(Cl)cc1)Cn1cncn1 (centres unmarked) [Beispiel 8] | – | ++++ (gute Wirkung = 80 % Überlebende am 6.Tag.p.i.) | gute antimykotische Wirkung | – | – | – | – | –
17 | 32 (≈ 84.9 µM) | – | > 64 | 2 (≈ 5.31 µM) | > 64 | Cc1ccc(OCC(O)(Cn2cncn2)C(C)(C)n2cncn2)c(Cl)c1 (centres unmarked) [Beispiel 13] | gutes antimykotisches Wirkungsspektrum | – | – | – | – | – | – | –
18 | 64 (≈ 237 µM) | – | > 64 | 64 (≈ 237 µM) | > 64 | OC(Cn1cncn1)(Cn1cncn1)c1ccccc1 [(A), reference compound] | – | – | – | – | – | – | – | –
19 | 8 (≈ 21.2 µM) | – | 16 (≈ 42.3 µM) | 4 (≈ 10.6 µM) | 32 (≈ 84.7 µM) | CC(C)(n1cccn1)C(O)(CCc1ccc(F)cc1Cl)Cn1cncn1 (centres unmarked) [Beispiel 27] | – | – | – | – | – | – | – | –
20 | 8 (≈ 20.1 µM) | – | > 64 | 2 (≈ 5.03 µM) | > 64 | CC(C)(n1cncn1)C(O)(COc1ccc(Cl)cc1Cl)Cn1cncn1 (centres unmarked) [Beispiel 11] | gutes antimykotisches Wirkungsspektrum | – | – | – | – | – | – | –
21 | – | – | – | – | – | CC(C)(n1cccn1)C(O)(CCc1ccc(Cl)cc1)Cn1cncn1 (centres unmarked) [Beispiel 1, 5-(4-Chlorphenyl)-2-methyl-2-(pyrazol-1-yl)-3-(1,2,4-triazol-methyl)-pentan-3-ol] | gutes antimykotisches Wirkungsspektrum | – | – | 2 | 2 | 2 | <1 | 2
22 | > 64 | > 64 | > 64 | 8 (≈ 24 µM) | > 64 | CC(C)(n1cncn1)C(O)(Cn1cncn1)c1ccc(Cl)cc1 (centres unmarked) [(B), reference compound] | – | – | – | – | – | – | – | –
23 | 16 (≈ 43.1 µM) | – | > 64 | 2 (≈ 5.38 µM) | 4 (≈ 10.8 µM) | Cc1cc(C)n(C(C)(C)C(O)(CCc2ccc(F)cc2)Cn2cncn2)n1 (centres unmarked) [Beispiel 25] | – | – | – | – | – | – | – | –
24 | < 1 | 4 (≈ 11.1 µM) | 32 (≈ 88.7 µM) | < 1 | 16 (≈ 44.3 µM) | CC(C)(n1cncn1)C(O)(CCc1ccc(Cl)cc1)Cn1cncn1 (centres unmarked) [Beispiel 29] | – | – | – | – | – | – | – | –

Row | SMILES | MIC [1] [µg/mL] | MIC [2] [µg/mL] | MIC [3] [µg/mL] | MIC [4] [µg/mL] | MIC [5] [µg/mL] | antimykotisches Wirkungsspektrum [6] | Antimykotische in-vivo-Wirksamkeit (oral) bei Mäusecandidose [7] | antimykotische Wirkung [7] | MHK-Werte Candida albicans [1] [µg/ml Nährmedium] | MHK-Werte Microsporum canis [2] [µg/ml Nährmedium] | MHK-Werte Torulopsis glabrata [3] [µg/ml Nährmedium] | MHK-Werte Trichophyton mentagr. [4] [µg/ml Nährmedium] | MHK-Werte Aspergillus fumigatus [5] [µg/ml Nährmedium]
25 | CC(C)(Cn1cncn1)C(O)(CCc1ccc(-c2ccccc2)cc1)Cn1cncn1 (centres unmarked) [Beispiel 5] | 8 (≈ 19.2 µM) | – | 32 (≈ 76.8 µM) | 2 (≈ 4.8 µM) | 8 (≈ 19.2 µM) | gutes antimykotisches Wirkungsspektrum | +++ (Wirkung = 60 % Überlebende am 6.Tag.p.i.) | gute antimykotische Wirkung | – | – | – | – | –
